Experimental data reported in publication PMC6658769, “First-Time-in-Human Study and Prediction of Early Bactericidal Activity for GSK3036656, a Potent Leucyl-tRNA Synthetase Inhibitor for Tuberculosis Treatment” (Antimicrobial Agents and Chemotherapy, 2019).
Like-named read-outs stand apart in the source and are kept apart here.

Assays:
[1] = human, in vivo
M. tuberculosis = conditions: cited from earlier work

Structure (SMILES): NC[C@@H](O)c1c(Cl)ccc(OCCO)c1O [GSK3635633]
- % dose in pooled urine [1]: 6 % dose

Structure (SMILES): COc1nc2ccc(Br)cc2cc1[C@@H](c1ccccc1)[C@@](O)(CCN(C)C)c1cccc2ccccc12 [bedaquiline]
- reported average EBA0–14 (M. tuberculosis; loading doses of 700 mg on day 1 and 500 mg on day 2 and then 400 mg): 0.061

Structure (SMILES): C[C@]1(COc2ccc(N3CCC(Oc4ccc(OC(F)(F)F)cc4)CC3)cc2)Cn2cc([N+](=O)[O-])nc2O1 [delamanid]
- reported average EBA0–14 (M. tuberculosis; 300 mg): 0.065
